Patent publication US6368788B1 (priority 1987, dated 2002)
Marks after values point to notes of the source that are not given here.

What was measured:
[1] = Chronic primary gastritis and gastro-duodenitis; format: in vivo, human
Description: Twenty two patients (all men aged 18-30 years) suffering from chronic primary gastritis and gastro-duodenitis were entered into the trial. Diagnosis was based on physical examination, and clinical and laboratory investigations including roentgenoscopy and endoscopic examination of the stomach and duodenum. Patient entry criteria was further conditioned on the results of laboratory tests for i) pre-treatment immune indices (i.e., numbers of lymphocytes, T-, and B-lymphocytes, etc.; TABLE 46) and ii) the in vitro sheep red blood cell rosette forming response of T-lymphocytes to L-Glu-L-Trp, (i.e., whether in vitro incubation of patient peripheral blood lymphocytes with L-Glu-L-Trp increased the percentage of E-RFC). […] These twelve patients were entered into the trial.
For determining normal values, the control group consisted of 28 normal healthy volunteers aged 17-23.
Patients received L-Glu-L-Trp im daily at a dosage of 100 μg for 5 days in combination with their conventional ongoing treatment.

[2] = system: lymphocytes of lymphoid organs; assay: Immune indices (E-RFC, EA-RFC, EAC-RFC) in healthy guinea pigs; format: in vivo; details: for E-RFC / EA-RFC / EAC-RFC: healthy guinea pigs, 1 mg/kg im daily 5 days, day 10
Protocol: Immune parameters were investigated in healthy male guinea pigs ([…]) following administration of test or control agents. Each test and control group consisted of 10 animals. […] Physiological saline was administered im to the animals of the control group. The affects of these treatments were determined on day 10 (i.e., 5 days after the last injection) by preparing cells from peripheral blood (PBL), thymus (TYM), lymph nodes (LN), spleen (SPL), and red pulp of bone marrow (BM). Cells were tested for antibody Fc receptors (EA-RFC), complement receptors (EAC-RFC), T-lymphocytes, “active” T-lymphocytes (E-RFC), B-lymphocytes (EA-RFC and EAC-RFC; according to the method of Bianco, C., et al., J. Exp. Med. 132(4):702-720 (1970). The results of these analyses are shown in TABLES 53-54, below, where data are expressed either as the number of RFC×10^9 per liter of blood, or RFC×10^3 per milligram (mg) of tissue.
Thymus, left paratracheal lymph node, and spleen were surgically removed, weighed, and homogenized in a glass Dounce homogenizer in Medium 199. Tissue fragments were removed by filtration through a chaperon. Bone marrow cell suspensions were prepared by irrigating the bone marrow canal of the pelvis with Medium 199 and homogenizing the irrigated solution. Suspensions from the different respective sources were purified by centrifuging the different cell samples on different aliquots of δ1.077 Ficoll-Urotrast for 40 minutes at 1500-1800 rpm. The lymphocyte interfaces from the gradients were collected into a siliconized test tube and washed in Medium 199. Residual red cells in the lymphocyte suspensions were lysed using 3% acetic acid in the presence of 0.05% Hessian-violet as a viability marker. Cell concentrations were determined microscopically using a Goryaev counting chamber. Cell concentrations were adjusted to 2.5×10^6/mL.
Ram erythrocytes (E) were washed 4× in saline (2000 rpm/10 min.) and suspended at a final concentration of 1% in Medium 199. For determinations of the percentage of E-rosette forming T-lymphocytes (E-RFC) in a sample, 0.1 mL of a prepared lymphocyte suspension (2.5×10^6/ml) was incubated with 0.1 mL of the 1% ram erythrocyte suspension at 37° C. for 10 min., centrifuged at 800-1000 rpm for 5 min., maintained at 4° C. for 2 hrs., and finally resuspended and counted in a Goryaev chamber. Activated T-lymphocytes (i.e., having increased E-RFC capacity) were determined by mixing the test lymphocyte suspension with E, immediately centrifuging for 5 min. at 800-1000 rpm, resuspending the cells and counting the rosettes formed in a Goryaev chamber.
Antibody-coated rabbit erythrocytes were used for determinations of EA-RFC (i.e., “activated” T-lymphocytes) according to the method of Stadecker, M. J., et al., J. Immunol. 11(6):1834-1837 (1973). Erythrocytes were prepared, incubated with an optimal dilution of anti-rabbit IgG, washed, and prepared as a 1% cell suspension in a manner analogous to those above (E-RFC, supra). EA-RFC assays were performed in a manner analogous to the description above, i.e., E-RFC, supra.
Determinations of EAC-RFC (i.e., B-lymphocytes) were performed according to the method described by Bianco, C., et al., J. Exp. Med. 132(4):702-720 (1970).

[3] = After L-Glu-L-Trp Combination Therapy

For L-Glu-L-Trp, the B-Lymphocytes [1, 3] was 0.14 ± 0.02 ×10^9/L, the “B-Lymphocytes % Normal Value” [1, 3] was “(97%)” and the “B-Lymphocytes (%)” value [1, 3] was 7.2 ± 1.5%. For the same substance, the “Null Lymphocytes” value [1, 3] was 0.9 ± 0.05 ×10^9/L, the “Null Lymphocytes % Normal Value” [1, 3] was “(145%)” and the “Null Lymphocytes (%)” value [1, 3] was 37.3 ± 2.0 %. The T-Lymphocytes [1, 3] was 1.04 ± 0.04 ×10^9/L, the “T-Lymphocytes % Normal Value” [1, 3] was “(96%)” and the “T-Lymphocytes (%)” value [1, 3] was 55.4 ± 2.1 %. For the same substance, the Clinical outcome ([1]; in vivo) was “more rapid recovery”, the “Decrease of T-lymphocytes in LN and BM” value ([2]; 1 mg/kg im, 5 days) was 50% and the “Increase of splenic and thymus T-cells” value ([2]; 1 mg/kg im, 5 days) was 2-9%. The E-RFC ([2]; BM) was 11.2 ± 2.3* 10^3/mg, the EA-RFC ([2]; BM) was 25.1 ± 1.9* 10^3/mg and the EAC-RFC ([2]; BM) was 13.9 ± 2.1 10^3/mg. For the same substance, the E-RFC ([2]; LN) was 81.4 ± 7.6* 10^3/mg, the EA-RFC ([2]; LN) was 61.7 ± 8.2 10^3/mg and the EAC-RFC ([2]; LN) was 173.3 ± 12.7 10^3/mg. The E-RFC ([2]; PBL) was 1.59 ± 0.78 10^9/L, the EA-RFC ([2]; PBL) was 0.82 ± 0.09 10^9/L and the EAC-RFC ([2]; PBL) was 0.79 ± 0.08* 10^9/L. The E-RFC ([2]; SPL) was 75.9 ± 6.8 10^3/mg, the EA-RFC ([2]; SPL) was 81.2 ± 7.4* 10^3/mg and the EAC-RFC ([2]; SPL) was 141.5 ± 22.6 10^3/mg. For the same substance, the E-RFC ([2]; TYM) was 448.1 ± 51.4 10^3/mg, the EA-RFC ([2]; TYM) was 542.6 ± 42.3 10^3/mg and the EAC-RFC ([2]; TYM) was 0 10^3/mg. The “Increase of complement receptor bearing cells (EAC-RFC) in blood” value ([2]; guinea pig, in vivo) was 2 fold, the “CD2+ lymphocytes (E-RFC), BM” value ([2]; treated guinea pigs) was 50% ↓ (p < 0.05) and the “CD2+ lymphocytes (E-RFC), LN” value ([2]; treated guinea pigs) was 32% ↓ (p < 0.05). The “CD2+ lymphocytes (E-RFC), Spleen” value ([2]; treated guinea pigs) was “ns”, the “CD2+ lymphocytes (E-RFC), Thymus” value ([2]; treated guinea pigs) was “ns” and the “Fc-receptor+ lymphocytes (EA-RFC), LN” value ([2]; treated guinea pigs) was “ns”. For the same substance, the “Fc-receptor+ lymphocytes (EA-RFC), PBL” value ([2]; treated guinea pigs) was “ns” and the “Fc-receptor+ lymphocytes (EA-RFC), Thymus” value ([2]; treated guinea pigs) was “ns”.
